Patent publication US9668497B2, “Flavor-enhancing compounds” (INTERNATIONAL FLAVORS & FRAGRANCES INC., priority 2015, dated 2017)

Assays:
[1] = Sensory description of Formula I alone in water; assay type: in vivo; details: 20 ppm in water
[2] = Cooling enhancement in WS-23 (35 ppm); assay type: in vivo
Description: (§1) The cooling enhancement of Formula I and Na-Formula I in cooling compounds including WS-5 (30 ppm), WS-23 (35 ppm), menthyl lactate (35 ppm), WS-3 (30 ppm) and Cooler 2 (10 ppm) was also evaluated.

[3] = Cooling enhancement in Cooler 2 (10 ppm); assay type: in vivo
Description: as §1

[4] = Solubility in aqueous solutions; assay type: physicochemical
[5] = Cooling enhancement in menthyl lactate (35 ppm); assay type: in vivo
Description: as §1

[6] = Cooling enhancement in menthol (35 ppm), trained sensory panel; assay type: in vivo
Description: The flavor compositions of menthol (35 ppm) combined with 7,8-dihydroxy-2-phenyl-4H-chromen-4-one (Formula I) at different concentrations were evaluated by a trained sensory panel. Sensory results are reported in the following. […]

[7] = Cooling enhancement in WS-3 (30 ppm); assay type: in vivo
Description: as §1

[8] = Cooling enhancement in various cooling compounds (summary of Example VII); assay type: in vivo; details: WS-5, WS-23, menthyl lactate, WS-3, Cooler 2; table footnote
Description: as §1

[9] = Cooling enhancement in WS-5 (30 ppm); assay type: in vivo
Description: as §1

## O=c1cc(-c2ccccc2)oc2c(O)c(O)ccc12 [Formula I, 7,8-dihydroxy-2-phenyl-4H-chromen-4-one]
[1]
  Cooling property: no cooling property
[2]; test substance 1 ppm
  Evaluation on the Cooling Enhancement: Marginal
[2]; test substance 2 ppm
  Evaluation on the Cooling Enhancement: Marginal
[2]; test substance 5 ppm
  Evaluation on the Cooling Enhancement: Marginal
[2]; test substance 10 ppm
  Evaluation on the Cooling Enhancement: ~10% enhancement
[2]; test substance 20 ppm
  Evaluation on the Cooling Enhancement: ~20% enhancement
[2]; test substance 30 ppm
  Evaluation on the Cooling Enhancement: ~20% enhancement,
[2]; test substance 40 ppm
  Evaluation on the Cooling Enhancement: Enhancement,
[2]; test substance 50 ppm
  Evaluation on the Cooling Enhancement: Enhancement,
[2]; test substance 100 ppm
  Evaluation on the Cooling Enhancement: Enhancement,
[3]; test substance 1 ppm
  Evaluation on the Cooling Enhancement: Marginal
[3]; test substance 2 ppm
  Evaluation on the Cooling Enhancement: Marginal
[3]; test substance 5 ppm
  Evaluation on the Cooling Enhancement: Marginal
[3]; test substance 10 ppm
  Evaluation on the Cooling Enhancement: ~10% enhancement
[3]; test substance 20 ppm
  Evaluation on the Cooling Enhancement: ~10% enhancement
[3]; test substance 30 ppm
  Evaluation on the Cooling Enhancement: ~20% enhancement,
[3]; test substance 40 ppm
  Evaluation on the Cooling Enhancement: Enhancement,
[3]; test substance 50 ppm
  Evaluation on the Cooling Enhancement: Enhancement,
[3]; test substance 100 ppm
  Evaluation on the Cooling Enhancement: Enhancement,
[4]
  Solubility in aqueous solutions: sparingly soluble
[5]; test substance 1 ppm
  Evaluation on the Cooling Enhancement: Marginal
[5]; test substance 2 ppm
  Evaluation on the Cooling Enhancement: Marginal
[5]; test substance 5 ppm
  Evaluation on the Cooling Enhancement: Marginal
[5]; test substance 10 ppm
  Evaluation on the Cooling Enhancement: ~10% enhancement
[5]; test substance 20 ppm
  Evaluation on the Cooling Enhancement: ~20% enhancement
[5]; test substance 30 ppm
  Evaluation on the Cooling Enhancement: ~20% enhancement,
[5]; test substance 40 ppm
  Evaluation on the Cooling Enhancement: Enhancement,
[5]; test substance 50 ppm
  Evaluation on the Cooling Enhancement: Enhancement,
[5]; test substance 100 ppm
  Evaluation on the Cooling Enhancement: Enhancement,
[6]; menthol 35 ppm, table footnote
  Cooling enhancement, overall statement: Formula I enhanced the cooling sensation of menthol.
[6]; menthol 35 ppm, test substance 1 ppm
  Flavor Profile: cooling enhancement: Marginal cooling enhancement
[6]; menthol 35 ppm, test substance 2 ppm
  Flavor Profile: cooling enhancement: Marginal cooling enhancement
[6]; menthol 35 ppm, test substance 5 ppm
  Flavor Profile: cooling enhancement: Marginal cooling enhancement
[6]; menthol 35 ppm, test substance 10 ppm
  Flavor Profile: cooling enhancement: ~10% cooling enhancement
[6]; menthol 35 ppm, test substance 20 ppm
  Flavor Profile: cooling enhancement: ~20% cooling enhancement,
[6]; menthol 35 ppm, test substance 30 ppm
  Flavor Profile: cooling enhancement: ~20% cooling enhancement, slight
[6]; menthol 35 ppm, test substance 40 ppm
  Flavor Profile: cooling enhancement: Cooling enhancement, reduced
[6]; menthol 35 ppm, test substance 50 ppm
  Flavor Profile: cooling enhancement: Cooling enhancement, harsh
[6]; menthol 35 ppm, test substance 100 ppm
  Flavor Profile: cooling enhancement: Cooling enhancement, harsh
[7]; test substance 1 ppm
  Evaluation on the Cooling Enhancement: Marginal
[7]; test substance 2 ppm
  Evaluation on the Cooling Enhancement: Marginal
[7]; test substance 5 ppm
  Evaluation on the Cooling Enhancement: Marginal
[7]; test substance 10 ppm
  Evaluation on the Cooling Enhancement: ~15% enhancement
[7]; test substance 20 ppm
  Evaluation on the Cooling Enhancement: ~20% enhancement
[7]; test substance 30 ppm
  Evaluation on the Cooling Enhancement: ~20% enhancement,
[7]; test substance 40 ppm
  Evaluation on the Cooling Enhancement: Enhancement,
[7]; test substance 50 ppm
  Evaluation on the Cooling Enhancement: Enhancement,
[7]; test substance 100 ppm
  Evaluation on the Cooling Enhancement: Enhancement,
[8]
  Cooling enhancement, overall statement: Formula I and Na-Formula I enhanced the cooling sensation of various cooling compounds.
[9]; test substance 1 ppm
  Evaluation on the Cooling Enhancement: Marginal
[9]; test substance 2 ppm
  Evaluation on the Cooling Enhancement: Marginal
[9]; test substance 5 ppm
  Evaluation on the Cooling Enhancement: Marginal
[9]; test substance 10 ppm
  Evaluation on the Cooling Enhancement: ~15% enhancement
[9]; test substance 20 ppm
  Evaluation on the Cooling Enhancement: ~20% enhancement
[9]; test substance 30 ppm
  Evaluation on the Cooling Enhancement: ~20% enhancement,
[9]; test substance 40 ppm
  Evaluation on the Cooling Enhancement: Enhancement,
[9]; test substance 50 ppm
  Evaluation on the Cooling Enhancement: Enhancement,
[9]; test substance 100 ppm
  Evaluation on the Cooling Enhancement: Enhancement,

## CC1CCC(C(C)C)C(O)C1 (centres unmarked) [Menthol, menthol, reference compound]
[6]; menthol 35 ppm alone, 0 ppm enhancer
  Flavor Profile: Cooling sensation
